Data on 16 compounds can be found in publication PMC6163981, “Novel and Selective Rhipicephalus microplus Triosephosphate Isomerase Inhibitors with Acaricidal Activity” (Veterinary Sciences, 2018).

Data set [1] deals with RmTIM (TIM from R. microplus) (Rhipicephalus microplus, UniProt A8B3A8). In words: biochemical.
Data set [2] relates to BME26 embryonic cells. Briefly: MTT viability assay on BME26 embryonic cells. The format is cell-based, Rhipicephalus microplus. Particulars: for IC50 / viability at 100 µM: Rhipicephalus microplus, 24 h, BME26, MTT; for IC50: read-out: IC50 in BME26 cells (In vitro anti-R. microplus); for viability at 100 µM: read-out: cell viability at 100 µM.
In data set [3] the target is T1, Homo sapiens TIM (HsTIM, HmTIM [sic] in Table 1) (Homo sapiens, UniProt P60174).
T1 construct: made in house; host or cells: E. coli
T1 sequence (P60174 whole entry): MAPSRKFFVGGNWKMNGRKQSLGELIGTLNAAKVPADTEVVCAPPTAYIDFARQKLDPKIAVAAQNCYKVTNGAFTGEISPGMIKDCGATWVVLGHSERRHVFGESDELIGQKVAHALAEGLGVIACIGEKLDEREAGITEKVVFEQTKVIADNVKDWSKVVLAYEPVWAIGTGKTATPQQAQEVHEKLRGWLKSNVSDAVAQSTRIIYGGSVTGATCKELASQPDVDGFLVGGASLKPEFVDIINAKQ
Briefly: Human TIM inhibition (selectivity). Type of data set: biochemical.

Another data set relates to mice (strain B6D2F1). As to conditions: male, B6D2F1, mouse, in vivo.
The subject of data set [4] is mammalian TIMs (rabbit and human). In words: Mammalian TIM inhibition (rabbit and human, summarised). Particulars: 100 µM. Type of data set: biochemical.
A further data set addresses Rabbit TIM (RbTIM) (Oryctolagus cuniculus, UniProt P00939). In words: Rabbit TIM inhibition (selectivity). Type of data set: biochemical.
Data set [5] has as its system Trypanosoma cruzi TIM (TcTIM). Particulars: previously obtained; cited from earlier work.
Details of data set [6]: method as in PMID 22803666. Particulars: previous work; cited from earlier work.
The test system of the next data set is mice. As to conditions: cited from earlier work.
Data set [7] has as its system BME26 embryonic cells. More on the design: method as in PMID 24956999, PMID 22036897. Particulars: widely used acaricide, comparison; cited from earlier work.

Values joined by “and” are separate entries in the source; they are usually repeats but may differ in a detail not shown here. Identical values can stand only once. “Also recorded” adds a separate entry of the source. Like-named read-outs stand apart in the source and are kept apart here.

Chain of Rabbit TIM (RbTIM) (P00939 2-249 limits assumed): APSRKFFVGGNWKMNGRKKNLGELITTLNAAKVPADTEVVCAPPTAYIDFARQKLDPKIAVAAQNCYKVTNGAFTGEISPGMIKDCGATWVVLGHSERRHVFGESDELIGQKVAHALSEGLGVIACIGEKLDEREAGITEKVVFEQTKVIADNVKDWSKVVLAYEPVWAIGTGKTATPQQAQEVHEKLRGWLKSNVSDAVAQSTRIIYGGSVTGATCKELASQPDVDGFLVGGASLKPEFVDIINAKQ
Chain of RmTIM (TIM from R. microplus) (A8B3A8 1-249): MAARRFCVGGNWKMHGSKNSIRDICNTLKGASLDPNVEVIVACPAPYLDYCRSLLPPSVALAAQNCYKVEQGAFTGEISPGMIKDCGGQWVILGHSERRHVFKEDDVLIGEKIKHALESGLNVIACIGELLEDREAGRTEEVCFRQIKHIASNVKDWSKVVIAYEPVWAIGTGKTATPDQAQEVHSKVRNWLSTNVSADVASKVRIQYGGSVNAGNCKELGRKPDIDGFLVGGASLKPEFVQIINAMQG

Regarding `CC1(C)[N+]([O-])=c2ccc(/C=C/c3ccccc3)cc2=[N+]1[O-]` [Compound 39], in data set [1] (read-out: IC50 (µM) RmTIM), the IC50 was in the range of 50 to 100 µM.

`O=C1C(=Cc2ccc([N+](=O)[O-])cc2)C(=O)N(Cc2ccccc2)S(=O)(=O)N1Cc1ccccc1` [Compound 50]: the IC50 in [1] (read-out: IC50 (µM) RmTIM) was ~50 µM and 50 µM; in the data set with BME26 embryonic cells [2], 71 ± 8 µM. Also, the viability at 100 µM in the data set on BME26 embryonic cells [2] (100 µM) amounted to 42%. Further, the inhibition at 100 µM (in data set [3]; at Rabbit TIM (RbTIM)) was 0% throughout. Besides, the “Toxicology: LD50” value in the data set on mice (strain B6D2F1) is on record as 3 mmol/kg body weight in mice. In data set [4], the “Mammalian Triosephosphate isomerase inhibition” value is given as “did not affect”.

`O=C1C(=Cc2ccc([N+](=O)[O-])o2)C(=O)N(Cc2ccccc2)S(=O)(=O)N1Cc1ccccc1` [Compound 52]: the concentration for half-maximal inhibition (IC50) in data set [1] (read-out: IC50 (µM) RmTIM) was 50 to 100 µM.

In turn, `O=S(=O)(NCCc1ccccc1)NCCc1ccccc1` [Compound 62] returned an IC50 in data set [1] (IC50 (µM) RmTIM) of 50 to 100 µM.

For the compound `C=CCn1c(-c2ccc(OC)cc2)cs/c1=N/N=C/c1ccc([N+](=O)[O-])s1` [Compound 70], the half-inhibitory concentration (IC50) in [1] (read-out: IC50 (µM) RmTIM) was roughly 100 µM.

Consider `Clc1ccc(-c2csc(N/N=C/C=C/c3ccco3)n2)cc1` [Compound 81], for which, in [1] (read-out: IC50 (µM) RmTIM), the IC50 fell in the range of 50 to 100 µM.

`O=C(N/N=C/C=C/c1ccc([N+](=O)[O-])o1)Nc1ccc2ccccc2c1` [Compound 98]: the 50% inhibitory concentration (IC50) in data set [1] (read-out: IC50 (µM) RmTIM) is ~50 µM and 50 µM; with BME26 embryonic cells [2], 67 ± 4 µM. Besides, the viability at 100 µM in the data set on BME26 embryonic cells [2] (100 µM) came out at 40%. Moreover, the inhibition at 100 µM in data set [3] came to 14%; at Rabbit TIM (RbTIM), 21%. The “Toxicology: LD50” value in the data set on mice (strain B6D2F1) is given as 3 mmol/kg body weight in mice. Also, in data set [4], the “Mammalian Triosephosphate isomerase inhibition” value is “did not affect”.

On to `O=[N+]([O-])c1ccc(/C=C/C=N/NC(=S)Nc2ccccc2)o1` [Compound 99], for which the 50% inhibitory concentration (IC50) in data set [1] (read-out: IC50 (µM) RmTIM) was roughly 100 µM.

`O=C(N/N=C/c1c(-c2ccccc2)no[n+]1[O-])c1cnn(-c2ccccc2)c1` [Compound 134]: the IC50 in data set [1] (read-out: IC50 (µM) RmTIM) was roughly 100 µM.

As for `Cc1c(C=O)no[n+]1[O-]` [Compound 136], the IC50 in data set [1] (read-out: IC50 (µM) RmTIM) is roughly 100 µM.

As to `Cc1c(CNc2ccc3ccccc3c2)no[n+]1[O-]` [Compound 146], the IC50 in data set [1] (read-out: IC50 (µM) RmTIM) is roughly 100 µM.

Take `Cc1ccc(-c2nsc(=O)[nH]2)cc1` [Compound 161]: the IC50 in [5] was 4 µM; in data set [1] (read-out: IC50 (µM) RmTIM) it was 25 ± 3 µM. Besides, the “effect on BME26 cells” value in the data set with BME26 embryonic cells [2] (MTT, 100 µM) was “did not have any effect; also recorded: no activity”. Also, the viability at 100 µM in the data set on BME26 embryonic cells [2] (100 µM) was 100%. For the same compound, the inhibition at 100 µM is 28% in [3] and 0% on Rabbit TIM (RbTIM). Moreover, in [3] (100 µM), the “% Inhibition at 100 µM HmTIM” value is recorded as “slight inhibitory activity”. Besides, the “penetration of biological membranes” value in data set [6] was “cannot penetrate biological membranes”.

For `C=CCNC(=S)N/N=C/c1ccc2c(c1)[n+]([O-])c(C)c(C)[n+]2[O-]` [Compound 179], the IC50 in data set [1] (read-out: IC50 (µM) RmTIM) was roughly 100 µM.

For the compound `Cc1ccc(/C=C/C=N/N2CCN(C/C=C/c3ccccc3)CC2)o1` [Compound 222], the concentration for half-maximal inhibition (IC50) in [1] (read-out: IC50 (µM) RmTIM) is 50 to 100 µM.

In the case of `N#Cc1nn(-c2c(Cl)cc(C(F)(F)F)cc2Cl)c(N)c1[S+]([O-])C(F)(F)F` (centres unmarked) [fipronil], the “acute oral LD50” value in the data set with mice was 91 mg/kg.

Take ivermectin: the half-maximal inhibitory concentration (IC50) in the data set with BME26 embryonic cells [7] was 3 µM.

As usually defined, the IC50 is the concentration that inhibits the measured activity by half. Usually viability stands for the share of living cells, or the viability signal relative to a control. In general, inhibition refers to the relative decrease from the control value, in per cent. Read a low inhibition as a response near the control.
